# In article PMC9782601, “A Fucosylated Lactose-Presenting Tetravalent Glycocluster Acting as a Mutual Ligand of Pseudomonas aeruginosa Lectins A (PA-IL) and B (PA-IIL)—Synthesis and Interaction Studies” (International Journal of Molecular Sciences, 2022):
# How the values were obtained:
# Type in all cases: binding
# PA-IL (LecA) [1] = biological target: T1, PA-IL (LecA) (Pseudomonas aeruginosa, UniProt Q05097); test: 1H STD NMR, reference ligand; conditions: 4 mM ligand, 40 μM lectin, D2O, 20 mM Tris-d11, 150 mM NaCl, 5 mM CaCl2, pH 7.5, 283 K
# T1 construct: freeze-dried; tetramer, one sugar site with one calcium ion per monomer
# PA-IL (LecA) [2] = biological target: T1, PA-IL (LecA); test: isothermal titration calorimetry, single-site model; conditions: 0.1 M Tris/HCl, 500 μM CaCl2, pH 7.5, 25 °C
# Text: isothermal titration calorimetry, single-site model on PA-IL (LecA)
# PA-IIL (LecB) = biological target: T2, PA-IIL (LecB) (Pseudomonas aeruginosa, UniProt Q9HYN5); test: as above; conditions: 0.1 M Tris/HCl, 500 μM CaCl2, pH 7.5, 25 °C
# T2 construct: freeze-dried; tetramer, one sugar site with two calcium ions per monomer
# Text: isothermal titration calorimetry, single-site model on PA-IIL (LecB)
# T1 sequence (Q05097 2-122): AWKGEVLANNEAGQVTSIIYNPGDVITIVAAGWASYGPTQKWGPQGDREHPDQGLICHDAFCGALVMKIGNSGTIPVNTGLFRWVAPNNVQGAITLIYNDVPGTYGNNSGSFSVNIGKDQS
# T2 sequence (Q9HYN5 entry or part of it): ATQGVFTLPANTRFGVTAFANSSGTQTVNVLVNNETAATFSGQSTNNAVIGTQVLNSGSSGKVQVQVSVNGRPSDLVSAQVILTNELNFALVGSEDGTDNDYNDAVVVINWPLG
smiles,measurement,setting,value
CO[C@H]1O[C@H](CO)[C@H](O)[C@H](O)[C@H]1O [Meα-D-Gal],STD signal,PA-IL (LecA) [1],The STD signals (highlighted by red ellipsoids) confirm the binding of Meα-D-Gal
"C#CCO[C@@H]1O[C@H](CO)[C@@H](O[C@@H]2O[C@H](CO)[C@H](O)[C@H](O)[C@H]2O)[C@H](O[C@@H]2O[C@@H](C)[C@@H](O)[C@@H](O)[C@@H]2O)[C@H]1O [compound 6, Compound 6]",Ka [10^4 M^-1],PA-IL (LecA) [2]; n = 0.51,59 ± 28.4 10^4 M^-1
same,Ka [10^4 M^-1],PA-IIL (LecB); n = 1.12,344 ± 124 10^4 M^-1
"C[C@@H]1O[C@@H](O[C@@H]2[C@@H](O)[C@H](OCc3cn(CCn4cc(COCC(COCc5cn(CCn6cc(CO[C@@H]7O[C@H](CO)[C@@H](O[C@@H]8O[C@H](CO)[C@H](O)[C@H](O)[C@H]8O)[C@H](O[C@@H]8O[C@@H](C)[C@@H](O)[C@@H](O)[C@@H]8O)[C@H]7O)nn6)nn5)(COCc5cn(CCn6cc(CO[C@@H]7O[C@H](CO)[C@@H](O[C@@H]8O[C@H](CO)[C@H](O)[C@H](O)[C@H]8O)[C@H](O[C@@H]8O[C@@H](C)[C@@H](O)[C@@H](O)[C@@H]8O)[C@H]7O)nn6)nn5)COCc5cn(CCn6cc(CO[C@@H]7O[C@H](CO)[C@@H](O[C@@H]8O[C@H](CO)[C@H](O)[C@H](O)[C@H]8O)[C@H](O[C@@H]8O[C@@H](C)[C@@H](O)[C@@H](O)[C@@H]8O)[C@H]7O)nn6)nn5)nn4)nn3)O[C@H](CO)[C@H]2O[C@@H]2O[C@H](CO)[C@H](O)[C@H](O)[C@H]2O)[C@@H](O)[C@H](O)[C@@H]1O [compound 8, Compound 8]",Ka [10^4 M^-1],"PA-IL (LecA) [2]; n = 0.51 pH, buffer, temperature, tetravalent ligand, n = 0.89",496 ± 104 10^4 M^-1
same,Ka [10^4 M^-1],"PA-IIL (LecB); n = 1.12 pH, buffer, temperature, tetravalent ligand, n = 1.1",257 ± 66.9 10^4 M^-1
